Series [1] concerns ddY strain male mice. Description: Acute toxicity test, Test method-(2), intraperitoneal. The series is classed as in vivo. Conditions: 7 days. How it is done: The lethal ratio was determined in ddY strain male mice (4 weeks old) at 7 days after the intraperitoneal injection of test compounds.
In series [2] the test system is LTC4. The series can be described thus: Antagonism in isolated guinea-pig trachea, Test method (i) (Table 3, given as LTC4 antagonism). It counts as cell-based. Conditions: Cavia porcellus, 5 min, test compound 10^-5 g/ml, given as LTC4 antagonisms. On the procedure:
(i) LTC4 and LTD4 antagonisms in guinea-pig trachea
Antagonisms for LTC4 and LTD4 were determined in isolated guinea-pig trachea prepared as spiral strip. Tracheal preparations were suspended under 1 g tension in 10 ml organ baths and they were incubated for 1 hr prior to use. Contractile responses to LTC4 (2×10^-8 g/ml) and LTD4 (2×10^-8 g/ml) were obtained after the maximal response to histamine (10^-4 M). Test compounds dissolved in 100% dimethyl sulfoxide were added to the organ baths (final concentration of 10^-5 g/ml or 10^-6 g/ml) 5 min prior to LTC4 and LTD4 addition, and then contractile responses to LTC4 and LTD4 were compared with those of control which was obtained from a paired trachea in the absence of test compounds. LTC4 - and LTD4 -induced contractions were expressed as a percentage of the maximal response to histamine. The antagonism was determined as follows:
(§1) Antagonism (%)=(1.0-% contraction in test/% contraction in […]

Series [3] relates to LTD4. Description: LTD4 antagonism in isolated guinea-pig trachea with indomethacin, Test method (ii) (Table 4). It counts as cell-based. The settings on record: Cavia porcellus, 0.5 h, LTD4 2×10^-8 g/ml, test compound 10^-6 g/ml, 30 min prior, 5 μmol indomethacin. On the procedure:
(ii) LTD4 antagonism in guinea-pig trachea
Antagonism for LTD4 was determined in isolated guinea-pig trachea prepared as spiral strip. Tracheal preparations were suspended under 1 g tension in 10 ml organ baths containing 5 μmol of indomethacin and they were incuated for 1 hr prior to use. Contractile responses to LTD4 (2×10^-8 g/ml) were obtained after the maximal response to histamine (10^-4 M). Test compounds dissolved in 100% dimethyl sulfoxide were added to the organ baths (final concentration of 10^-6 g/ml) 30 min prior to LTD4 addition, and then contractile responses to LTD4 were compared with those of control which was obtained from a paired trachea in the absence of test compounds. LTD4 -induced contractions were expressed as a percentage of the maximal response to histamine. The antagonism was determined as follows:
as §1

In general, inhibition refers to how much of the control response was suppressed. High values mean a response far below the control, low ones a response near the control. Take `CCCc1cc(C#N)ccc1OCCCNc1cnn(C(C)(C)C)c(=O)c1Cl` [Compound No. 1, 4-Chloro-5-[3-(2-n-propyl-4-cyanophenoxy)propylamino]-2-t-butyl-3(2H)pyridazinone]: the “Lethal ratio (Death number/Experimental number)” value is 0/2 in series [1] (200 mg/kg intraperitoneal) and 0/1 in series [1] (400 mg/kg intraperitoneal). The compound further gave an inhibition at 10 µg/mL in series [2] of 49%.

With `CCOC(=O)c1ccc(OCCCNc2cnn(CC)c(=O)c2Cl)c(Cl)c1` [Compound No. 10], the “Lethal ratio (Death number/Experimental number)” value in series [1] (200 mg/kg intraperitoneal) was 0/2; in series [1] (400 mg/kg intraperitoneal), 0/1. Further, testing at 10 µg/mL in series [2] gave an inhibition of 46%. The matching figures for `COc1cccc(SCCCNc2cnn(C(C)(C)C)c(=O)c2Cl)c1` [Compound No. 14]: 0/2, 0/1 and 40%. In series [3], `CCCc1cc(C(N)=O)ccc1OCCCNc1cnn(C(C)C)c(=O)c1Br` [Compound No. 122] yielded an inhibition at 1 µg/mL of 94%.

On to `CCCCc1cc(C(=O)OC)ccc1OCCCNc1cnn(C(C)C)c(=O)c1Br` [Compound No. 126], for which, in series [3], the inhibition at 1 µg/mL was found to be 90%.

As to `CCCc1cc(C#N)ccc1OCC(O)CNc1cnn(C(C)C)c(=O)c1Cl` (stereo not drawn) [Compound No. 145, 4-chloro-5-[3-(2-n-propyl-4-cyanophenoxy)-2-hydroxypropylamino]-2-i-propyl-3(2H)pyridazinone], the “Lethal ratio (Death number/Experimental number)” value is 0/2 in series [1] (200 mg/kg intraperitoneal) and 0/1 in series [1] (400 mg/kg intraperitoneal). In series [2], this compound had an inhibition at 10 µg/mL of 85%. Turning to `CCCCc1cc(C(N)=O)ccc1OCCCNc1cnn(CC)c(=O)c1Br` [Compound No. 180, 4-bromo-5-[3-(2-n-butyl-4-carbamoylphenoxy)propylamino]-2-ethyl-3(2H) pyridazinone], at 1 µg/mL the inhibition in series [3] was 88%. `CCn1ncc(NCCCOc2ccc(C(=O)OC)cc2Cl)c(Cl)c1=O` [compound 13]: the “Lethal ratio (Death number/Experimental number)” value in series [1] (200 mg/kg intraperitoneal) is 0/2; in series [1] (400 mg/kg intraperitoneal), 0/1. This compound showed an inhibition at 10 µg/mL in series [2] of 53%.

On to `CCCc1c(OCCCOc2cnn(CC)c(=O)c2Cl)ccc2c(=O)cc(C(=O)O)oc12` [compound 29], for which the entries for the “Lethal ratio (Death number/Experimental number)” value in series [1] (200 mg/kg intraperitoneal) and in series [1] (400 mg/kg intraperitoneal) were 0/2 and 0/1, respectively. Besides, the inhibition at 10 µg/mL in series [2] was found to be 18%. The corresponding values for `COc1cccc(OCCCOc2cnn(C(C)C)c(=O)c2Cl)c1` [compound 35] are 0/2, 0/1 and 72%.

For the compound `COc1cccc(OCCOc2cnn(C(C)C)c(=O)c2Cl)c1` [compound 45], the “Lethal ratio (Death number/Experimental number)” value was 0/2 in series [1] (200 mg/kg intraperitoneal) and 0/1 in series [1] (400 mg/kg intraperitoneal). The compound further showed an inhibition at 10 µg/mL in series [2] of 27%.

The compound `COC(=O)CCC(=O)c1ccc(OCCCN(C)c2cnn(C(C)C)c(=O)c2Cl)cc1` [compound 77] showed an inhibition at 10 µg/mL in series [2] of 17%. Same read-out and setting: to `CC(C)n1ncc(N(C)CCCOc2ccc(C(=O)CCC(=O)O)cc2)c(Cl)c1=O` [compound 78] belongs 32%; to `COC(=O)c1ccc(OCCCOc2cnn(C(C)C)c(=O)c2Cl)c(C(C)C)c1` [compound 79], 58%; to `C=CCc1cc(C(=O)OC)ccc1OCCCNc1cnn(CC)c(=O)c1Cl` [compound 81], 80%. The same measure, in the same setting: to `CCCc1cc(C(=O)O)ccc1OCCCOc1cnn(CC)c(=O)c1Cl` [compound 83] belongs 46%; to `CCCc1cc(C(=O)OC)ccc1OCCCOc1cnn(CC)c(=O)c1Cl` [compound 84], 85%; to `CCCc1cc(C(=O)O)ccc1OCCCOc1cnn(C(C)C)c(=O)c1Cl` [compound 86], 59%. Still for that read-out and setting: to `CCCc1cc(C#N)ccc1OCCCOc1cnn(C(C)C)c(=O)c1Cl` [compound 87] belongs 60%. In series [2], `COC(=O)c1ccc(OCCCNc2cnn(C(C)C)c(=O)c2Cl)c(C(C)C)c1` [compound 88] yielded an inhibition at 10 µg/mL of 97%. On the same count and under the same terms, to `CC(C)c1cc(C(=O)O)ccc1OCCCNc1cnn(C(C)C)c(=O)c1Cl` [compound 89] belongs 52%; to `CCOc1cc(C(=O)OC)ccc1OCCCNc1cnn(C(C)C)c(=O)c1Cl` [compound 90], 83%; to `CCOc1cc(C(=O)O)ccc1OCCCNc1cnn(C(C)C)c(=O)c1Cl` [compound 91], 14%. Same read-out and setting: to `CCc1cc(C=CC(=O)O)ccc1OCCCNc1cnn(C(C)C)c(=O)c1Cl` [compound 95] belongs 59%; to `CCc1cc(C(=O)OC)ccc1OCCCNc1cnn(CC)c(=O)c1Cl` [compound 96], 77%.

As to `CCc1cc(C(=O)O)ccc1OCCCNc1cnn(C(C)C)c(=O)c1Cl` [compound 97], in series [2], the inhibition at 10 µg/mL worked out at 62%. The same measure, in the same setting: next, `CCn1ncc(NCCCOc2ccc(C)cc2OC)c(Cl)c1=O` [compound 99]: 51%. Still for that read-out and setting: to `COc1cc(C)ccc1OCCCNc1cnn(C(C)C)c(=O)c1Cl` [compound 100] belongs 66%; to `CCn1ncc(NCCCOc2ccc(C(=O)O)cc2C(C)C)c(Cl)c1=O` [compound 104], 57%; to `CCc1cc(OC)ccc1OCCCNc1cnn(CC)c(=O)c1Cl` [compound 106], 93%.

In series [2], `CCc1cc(OC)ccc1OCCCNc1cnn(C(C)C)c(=O)c1Cl` [compound 107] registered an inhibition at 10 µg/mL of 85%. Still for that read-out and setting: next, `CCCCc1cc(C(=O)OC)ccc1OCCCNc1cnn(C(C)C)c(=O)c1Cl` [compound 110]: 77%; `CCCc1cc(C(=O)O)ccc1OCCCNc1cnn(CC)c(=O)c1Br` [compound 119]: 100%; `COc1cccc(OCC(O)COc2cnn(C(C)C)c(=O)c2Cl)c1` (stereo not drawn) [compound 140]: 41%. Same read-out and setting: to `CCOc1ccccc1OCC(O)COc1cnn(C(C)C)c(=O)c1Cl` (stereo not drawn) [compound 141] belongs 54%. For `CC(C)c1ccccc1OCC(O)COc1cnn(C(C)C)c(=O)c1Cl` (stereo not drawn) [compound 142], the “Lethal ratio (Death number/Experimental number)” value is given as 0/2 in series [1] (200 mg/kg intraperitoneal) and 0/1 in series [1] (400 mg/kg intraperitoneal). Moreover, the inhibition at 10 µg/mL in series [2] worked out at 69%. For the compound `CCCc1ccccc1OCC(O)CNc1cnn(C(C)C)c(=O)c1Cl` (stereo not drawn) [compound 144], the inhibition at 10 µg/mL in series [2] was 84%.

As for `CCCc1cc(C(=O)O)ccc1OCC(O)CNc1cnn(C(C)C)c(=O)c1Cl` (stereo not drawn) [compound 146], the inhibition at 10 µg/mL in series [2] stood at 14%. As to `CCCc1cc(C(=O)OC)ccc1OCC(O)CNc1cnn(C(C)C)c(=O)c1Cl` (stereo not drawn) [compound 147], in series [2], the inhibition at 10 µg/mL came to 66%. The same measure, in the same setting: next, `CCCc1cc(C(N)=O)ccc1OCC(O)CNc1cnn(C(C)C)c(=O)c1Cl` (stereo not drawn) [compound 148]: 17%. Same read-out and setting: to `CCCc1cc(C#N)ccc1OCC(=O)CNc1cnn(C(C)C)c(=O)c1Cl` [compound 149] belongs 81%. For `CCn1ncc(NCC(O)COS(=O)(=O)c2ccc(C)cc2)c(Cl)c1=O` (stereo not drawn) [compound 150], in series [2], the inhibition at 10 µg/mL amounted to 16%. Still for that read-out and setting: to `CC(C)n1ncc(NCC(O)COc2ccccc2Cl)c(Cl)c1=O` (stereo not drawn) [compound 151] belongs 47%; to `CCCc1cc(OC)ccc1OCC(O)CNc1cnn(CC)c(=O)c1Cl` (stereo not drawn) [compound 152], 60%; to `CCCc1cc(C(=O)OC)ccc1SCC(=O)CNc1cnn(C(C)C)c(=O)c1Cl` [compound 156], 56%. As for `CCn1ncc(NCC(O)COc2ccccc2Cl)c(Cl)c1=O` (stereo not drawn) [compound 159], in series [2], the inhibition at 10 µg/mL was determined as 44%. Same read-out and setting: next, `CCCc1cc(OC)ccc1OCC(O)CNc1cnn(C(C)C)c(=O)c1Cl` (stereo not drawn) [compound 160]: 70%; `CCCc1cc(C(=O)O)ccc1OCC(CN(C)c1cnn(C(C)C)c(=O)c1Cl)OC` (stereo not drawn) [compound 165]: 33%; `COC(COc1ccc(C(=O)C(C)CC(=O)O)cc1)CN(C)c1cnn(C(C)C)c(=O)c1Cl` (stereo not drawn) [compound 168]: 21%. Still for that read-out and setting: to `CC(C)c1ccccc1OCC(O)COc1cnn(C(C)C)c(=O)c1` (stereo not drawn) [compound 169] belongs 50%; to `COc1ccc(NCC(O)COc2cnn(C(C)C)c(=O)c2Cl)cc1OC` (stereo not drawn) [compound 170], 17%. The same measure, in the same setting: to `CCCc1cc(C#N)ccc1OCC(=O)COc1cnn(C(C)C)c(=O)c1Cl` [compound 173] belongs 35%. `CCCc1cc(C(=O)OC)ccc1OCC(O)COc1cnn(C(C)C)c(=O)c1Cl` (stereo not drawn) [compound 174] showed an inhibition at 10 µg/mL in series [2] of 78%. In series [2], `CCCc1cc(C(=O)OC)ccc1OCC(COc1cnn(C(C)C)c(=O)c1Cl)OC` (stereo not drawn) [compound 175] displayed an inhibition at 10 µg/mL of 55%.

The values are drawn from patent US4783462A, “3(2H)pyridazinone, and anti-allergic agent containing it” (Nissan Chemical Industries Ltd., priority 1985, dated 1988).
